Columns and labels:
[1] = test system: barnyardgrass; test: Test A preemergence; type: in vivo, Echinochloa crus-galli
Procedure, shortened: (§1)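 Scoring: eye-based comparison with untreated controls, 0 for no effect through 100 for complete control, at about day 10. Treatments: directed soil spray preemergence; foliar spray postemergence on 2–10 cm plants at the one- to two-leaf stage. Medium: loam soil with sand.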

[2] = test system: large (Lg) crabgrass; test: Test A preemergence; type: in vivo, Digitaria sanguinalis
Procedure, shortened: as §1

[3] = test system: giant foxtail; test: Test A preemergence; type: in vivo, Setaria faberii
Excerpt: (§2) Seeds of plant species selected from barnyardgrass (Echinochloa crus-galli), kochia (Kochia scoparia), ragweed (common ragweed, Ambrosia elatior), Italian ryegrass (Lolium multiflorum), large (Lg) crabgrass (Digitaria sanguinalis), giant foxtail (Setaria faberii), morningglory (Ipomoea spp.), pigweed (Amaranthus retroflexus), velvetleaf (Abutilon theophrasti), wheat (Triticum aestivum), and corn (Zea mays) were planted into a blend of loam soil and sand and treated preemergence with a directed soil spray using test chemicals formulated in a non-phytotoxic solvent mixture which included a surfactant.
(§3) At the same time, plants selected from these crop and weed species and also blackgrass (Alopecurus myosuroides), and galium (catchweed bedstraw, Galium aparine) were planted in pots containing the same blend of loam soil and sand and treated with postemergence applications of test chemicals formulated in the same manner. Plants ranged in height from 2 to 10 cm and were in the one- to two-leaf stage for the postemergence treatment. Treated plants and untreated controls were maintained in a greenhouse for approximately 10 days, after which time all treated plants were compared to untreated controls and visually evaluated for injury. Plant response ratings, summarized in Table A, are based on a 0 to 100 scale where 0 is no effect and 100 is complete control. A dash (-) response means no test result.

[4] = test system: morningglory; test: Test A preemergence; type: in vivo, Ipomoea spp.
Procedure, shortened: as §1

[5] = test system: pigweed; test: Test A preemergence; type: in vivo, Amaranthus retroflexus
Procedure, shortened: as §1

[6] = test system: velvetleaf; test: Test A preemergence; type: in vivo, Abutilon theophrasti
Excerpt: as §2, §3

[7] = test system: wheat; test: Test A preemergence; type: in vivo, Triticum aestivum
Excerpt: as §2, §3

[8] = test system: corn; test: Test A preemergence; type: in vivo, Zea mays
Procedure, shortened: as §1

[9] = test system: barnyardgrass; test: Test A postemergence; type: in vivo, Echinochloa crus-galli
Procedure, shortened: as §1

[10] = test system: large (Lg) crabgrass; test: Test A postemergence; type: in vivo, Digitaria sanguinalis
Excerpt: as §2, §3

[11] = test system: giant foxtail; test: Test A postemergence; type: in vivo, Setaria faberii
Procedure, shortened: as §1

[12] = test system: morningglory; test: Test A postemergence; type: in vivo, Ipomoea spp.
Excerpt: as §2, §3

[13] = test system: pigweed; test: Test A postemergence; type: in vivo, Amaranthus retroflexus
Excerpt: as §2, §3

[14] = test system: velvetleaf; test: Test A postemergence; type: in vivo, Abutilon theophrasti
Excerpt: as §2, §3

[15] = test system: wheat; test: Test A postemergence; type: in vivo, Triticum aestivum
Excerpt: as §2, §3

[16] = test system: corn; test: Test A postemergence; type: in vivo, Zea mays
Procedure, shortened: as §1

[17] = test system: rice; test: Test B flooded paddy test; type: in vivo, Oryza sativa; details: Flood, 250 g ai/ha; 0 to 100 scale where 0 is no effect and 100 is complete control
Experimental: (§4) Plant species in the flooded paddy test selected from rice (Oryza sativa), sedge, umbrella (small-flower umbrella sedge, Cyperus difformis), (Heteranthera limosa), and barnyardgrass (Echinochloa crus-galli) were grown to the 2-leaf stage for testing. At time of treatment, test pots were flooded to 3 cm above the soil surface, treated by application of test compounds directly to the paddy water, and then maintained at that water depth for the duration of the test. Treated plants and controls were maintained in a greenhouse for 13 to 15 days, after which time all species were compared to controls and visually evaluated. Plant response ratings, summarized in Table B, are based on a scale of 0 to 100 where 0 is no effect and 100 is complete control. A dash (-) response means no test result.

[18] = test system: sedge, umbrella; test: Test B flooded paddy test; type: in vivo, Cyperus difformis; details: Flood, 250 g ai/ha; 0 to 100 scale where 0 is no effect and 100 is complete control
Experimental: as §4

[19] = test system: Heteranthera limosa; test: Test B flooded paddy test; type: in vivo; details: Flood, 250 g ai/ha; 0 to 100 scale where 0 is no effect and 100 is complete control
Experimental: as §4

[20] = test system: barnyardgrass; test: Test B flooded paddy test; type: in vivo, Echinochloa crus-galli; details: Flood, 250 g ai/ha; 0 to 100 scale where 0 is no effect and 100 is complete control
Experimental: as §4

[21] = 125 g ai/ha, 0 to 100 scale where 0 is no effect and 100 is complete control
[22] = 500 g ai/ha, 0 to 100 scale, 0 no effect, 100 complete control, approx. 10 days
[23] = 500 g ai/ha, 0 to 100 scale, 0 no effect, 100 complete control

| Structure (SMILES) | Barnyardgrass plant response rating [1, 22] | Crabgrass, Large plant response rating [2, 22] | Foxtail, Giant plant response rating [3, 22] | Pigweed plant response rating [5, 22] | Velvetleaf plant response rating [6, 22] | Wheat plant response rating [7, 22] | Corn plant response rating [8, 22] | Plant response rating, Barnyardgrass [9, 21] | Plant response rating, Barnyardgrass [9, 23] | Plant response rating, Crabgrass, Large [10, 21] | Plant response rating, Crabgrass, Large [10, 23] | Plant response rating, Foxtail, Giant [11, 21] | Plant response rating, Foxtail, Giant [11, 23] | Plant response rating, Pigweed [13, 21] | Plant response rating, Pigweed [13, 23] | Plant response rating, Velvetleaf [14, 21] | Plant response rating, Velvetleaf [14, 23] | Plant response rating, Wheat [15, 21] | Plant response rating, Wheat [15, 23] | Plant response rating, Corn [16, 21] | also measured |
| --- | --- | --- | --- | --- | --- | --- | --- | --- | --- | --- | --- | --- | --- | --- | --- | --- | --- | --- | --- | --- | --- |
| FC(F)(F)c1ccn(-c2ccccc2Oc2ncc(Br)cn2)n1 [Compound 1] | 70 | 100 | 100 | 100 | 20 | 0 | 0 | 10 | 30 | 20 | 50 | 10 | 60 | 50 | 100 | 20 | 70 | 0 | 0 | 0 | Barnyardgrass plant response rating [1, 21]: 20; Crabgrass, Large plant response rating [2, 21]: 50; Foxtail, Giant plant response rating [3, 21]: 60; Morningglory plant response rating [4, 21]: 0; Morningglory plant response rating [4, 22]: 0; Pigweed plant response rating [5, 21]: 60; Velvetleaf plant response rating [6, 21]: 0; Wheat plant response rating [7, 21]: 0; Corn plant response rating [8, 21]: 0; Plant response rating, Morningglory [12, 21]: 0; Plant response rating, Morningglory [12, 23]: 20; Plant response rating, Corn [16, 23]: 10; Plant response rating, Rice [17]: 0; Plant response rating, Sedge, Umbrella [18]: 0; Plant response rating, Ducksalad [19]: 0; Plant response rating, Barnyardgrass [20]: 0 |
| Cc1ccn(-c2ccccc2Oc2ncc(Cl)cn2)n1 [Compound 36] | 0 | 70 | 20 | 20 | 20 | 0 | 0 | 0 | 0 | 0 | 10 | 0 | 0 | 0 | 20 | 20 | 70 | 0 | 0 | 0 | Plant response rating, Barnyardgrass [1, 21]: 0; Plant response rating, Crabgrass, Large [2, 21]: 0; Plant response rating, Foxtail, Giant [3, 21]: 0; Plant response rating, Pigweed [5, 21]: 0; Plant response rating, Velvetleaf [6, 21]: 0; Plant response rating, Wheat [7, 21]: 0; Plant response rating, Corn [8, 21]: 0; Plant response rating, Corn [16, 23]: 0; Plant response rating, Rice [17]: 0; Plant response rating, Sedge, Umbrella [18]: 0; Plant response rating, Ducksalad [19]: 0; Plant response rating, Barnyardgrass [20]: 0 |
| Cc1nn(-c2ccccc2Oc2ncc(Cl)cn2)cc1Br [Compound 37] | 10 | 80 | 30 | 0 | 10 | 0 | 0 | 0 | 0 | 0 | 0 | 0 | 0 | 0 | 10 | 20 | 40 | 0 | 0 | 0 | Plant response rating, Barnyardgrass [1, 21]: 0; Plant response rating, Crabgrass, Large [2, 21]: 10; Plant response rating, Foxtail, Giant [3, 21]: 10; Plant response rating, Morningglory [4, 21]: 0; Morningglory plant response rating [4, 22]: 0; Plant response rating, Pigweed [5, 21]: 0; Plant response rating, Velvetleaf [6, 21]: 10; Plant response rating, Wheat [7, 21]: 0; Plant response rating, Corn [8, 21]: 0; Plant response rating, Corn [16, 23]: 0; Plant response rating, Rice [17]: 0; Plant response rating, Sedge, Umbrella [18]: 0; Plant response rating, Ducksalad [19]: 0; Plant response rating, Barnyardgrass [20]: 0 |
| Cc1nn(-c2ccccc2Oc2ncc(Cl)cn2)cc1Cl [Compound 38] | 0 | 40 | 20 | 0 | 10 | 0 | 0 | 0 | 0 | 0 | 10 | 0 | 0 | 0 | 10 | 10 | 20 | 0 | 0 | 0 | Plant response rating, Barnyardgrass [1, 21]: 0; Plant response rating, Crabgrass, Large [2, 21]: 0; Plant response rating, Foxtail, Giant [3, 21]: 0; Plant response rating, Morningglory [4, 21]: 0; Morningglory plant response rating [4, 22]: 0; Plant response rating, Pigweed [5, 21]: 0; Plant response rating, Velvetleaf [6, 21]: 0; Plant response rating, Wheat [7, 21]: 0; Plant response rating, Corn [8, 21]: 0; Plant response rating, Corn [16, 23]: 0; Plant response rating, Rice [17]: 0; Plant response rating, Sedge, Umbrella [18]: 30; Plant response rating, Ducksalad [19]: 0; Plant response rating, Barnyardgrass [20]: 0 |
| Cc1nn(-c2ccccc2Oc2ncc(Cl)cn2)cc1Cl [Compound 39] | 10 | 90 | 50 | 0 | 20 | 0 | 0 | 0 | 0 | 0 | 10 | 0 | 0 | 10 | 40 | 20 | 30 | 0 | 0 | 0 | Plant response rating, Barnyardgrass [1, 21]: 0; Plant response rating, Crabgrass, Large [2, 21]: 10; Plant response rating, Foxtail, Giant [3, 21]: 10; Plant response rating, Morningglory [4, 21]: 0; Morningglory plant response rating [4, 22]: 0; Plant response rating, Pigweed [5, 21]: 0; Plant response rating, Velvetleaf [6, 21]: 10; Plant response rating, Wheat [7, 21]: 0; Plant response rating, Corn [8, 21]: 0; Plant response rating, Corn [16, 23]: 10; Plant response rating, Rice [17]: 0; Plant response rating, Sedge, Umbrella [18]: 30; Plant response rating, Ducksalad [19]: 50; Plant response rating, Barnyardgrass [20]: 0 |

Source: patent US9695155B2, “Herbicidal substituted pyrimidinyloxy benzene compounds” (E. I. DU PONT DE NEMOURS AND COMPANY, priority 2013, dated 2017)
